Reference: PubChem BioAssay AID1259411 (Chemical Carcinogenesis Research Information System (CCRIS), 2018)
Active and inactive are the calls of the source. The rule behind the calls is not given here.

Tested on: rodent carcinogenicity bioassays, tumor incidence
Test: CCRIS carcinogenicity studies
How it was run: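 NCI-built, expert-reviewed records of carcinogenicity and related test outcomes (mutagenicity, tumor promotion/inhibition) compiled from published and report sources, historical span 1985-2011, not updated.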

In the case of `Clc1cc2c(cc1Cl)Oc1cc(Cl)c(Cl)cc1O2`, the carcinogen call (Species: MOUSE, Strain/Sex: B6C3/FEMALE, Route: GAVAGE, Dose: 0, 2.5, 5 UG/KG IN CORN OIL 1/WK FOR 52 WK (STUDY DURATION: 110 WK), Dose: 0, 2.5, 5 UG/KG IN CORN OIL 1/WK FOR 52 WK (STUDY DURATION: 110 WK), Tumor Site: Type of Lesion: LIVER: HEPATOCELLULAR ADENOMA, HEPTOCELLULAR CARCINOMA) is reported as “active; positive”, the carcinogen call (Species: MOUSE, Strain/Sex: B6C3/FEMALE, Route: INTRAPERITONEAL, Dose: 0, 1, 30, 60, UG/KG 1/WK FOR 5 WK BEGINNING AT 10 D OF AGE (STUDY DURATION: 78 WK), Dose: 0, 1, 30, 60, UG/KG 1/WK FOR 5 WK BEGINNING AT 10 D OF AGE (STUDY DURATION: 78 WK), Tumor Site: Type of Lesion: LIVER: HEPATOCELLULAR ADENOMA, THYMUS: LYMPHOMA) is reported as “active; positive” and the carcinogen call (Species: MOUSE, Strain/Sex: B6C3/MALE, Route: GAVAGE, Dose: 0, 2.5, 5 UG/KG IN CORN OIL 1/WK FOR 52 WK (STUDY DURATION: 110 WK), Dose: 0, 2.5, 5 UG/KG IN CORN OIL 1/WK FOR 52 WK (STUDY DURATION: 110 WK), Tumor Site: Type of Lesion: LIVER: HEPATOCELLULAR CARCINOMA) is reported as “active; positive”. The carcinogen call (Species: MOUSE, Strain/Sex: B6C3/MALE, Route: INTRAPERITONEAL, Dose: 0, 1, 30, 60, UG/KG 1/WK FOR 5 WK BEGINNING AT 10 D OF AGE (STUDY DURATION: 78 WK), Dose: 0, 1, 30, 60, UG/KG 1/WK FOR 5 WK BEGINNING AT 10 D OF AGE (STUDY DURATION: 78 WK), Tumor Site: Type of Lesion: LIVER: HEPATOCELLULAR ADENOMA, HEPTOCELLULAR CARCINOMA, THYMUS: LYMPHOMA) was “active; positive”, the carcinogen call (Species: MOUSE, Strain/Sex: B6C3F1/FEMALE, Route: GAVAGE, Dose: 0, 0.04, 0.2, 2.0 UG/KG SUSPENDED IN 9:1 CORN OIL-ACETONE, Dose: 0, 0.04, 0.2, 2.0 UG/KG SUSPENDED IN 9:1 CORN OIL-ACETONE, Tumor Site: Type of Lesion: LIVER: HEPATOCELLULAR CARCINOMA, THYROID GLAND: FOLLICULAR CELL ADENOMA) was “active; positive” and the carcinogen call (Species: MOUSE, Strain/Sex: B6C3F1/MALE, Route: GAVAGE, Dose: 0, 0.01, 0.05, 0.5 UG/KG SUSPENDED IN 9:1 CORN OIL-ACETONE, Dose: 0, 0.01, 0.05, 0.5 UG/KG SUSPENDED IN 9:1 CORN OIL-ACETONE, Tumor Site: Type of Lesion: LIVER: HEPATOCELLULAR CARCINOMA) was “active; positive”. The carcinogen call (Species: MOUSE, Strain/Sex: SWISS/FEMALE, Route: DERMAL, Dose: 0.005 UG IN ACETONE SUSPENSION 3/WK FOR 99 OR 104 WK (STUDY DURATION: 99 OR 104 WK), Tumor Site: Type of Lesion: INTEGUMENTARY SYSTEM (SUBCUTANEOUS TISSUE): FIBROSARCOMA) was “active; positive”, the carcinogen call (Species: MOUSE, Strain/Sex: SWISS/MALE, Route: DERMAL, Dose: 0.001 UG IN ACETONE SUSPENSION 3/WK FOR 99 OR 104 WK (STUDY DURATION: 99 OR 104 WK), Tumor Site: Type of Lesion: INTEGUMENTARY SYSTEM (SUBCUTANEOUS TISSUE): FIBROSARCOMA) was “equivocal” and the carcinogen call (Species: RAT, Strain/Sex: OSBORNE-MENDEL/FEMALE, Route: GAVAGE, Dose: 0, 0.01, 0.05, 0.5 UG/KG SUSPENDED IN 9:1 CORN OIL-ACETONE, Dose: 0, 0.01, 0.05, 0.5 UG/KG SUSPENDED IN 9:1 CORN OIL-ACETONE, Tumor Site: Type of Lesion: LIVER: NEOPLASTIC NODULE) was “active; positive”. For the same compound, the carcinogen call (Species: RAT, Strain/Sex: OSBORNE-MENDEL/MALE, Route: GAVAGE, Dose: 0, 0.01, 0.05, 0.5 UG/KG SUSPENDED IN 9:1 CORN OIL-ACETONE, Dose: 0, 0.01, 0.05, 0.5 UG/KG SUSPENDED IN 9:1 CORN OIL-ACETONE, Tumor Site: Type of Lesion: THYROID GLAND: FOLLICULAR CELL ADENOMA) was “active; positive”, the carcinogen call (Species: RAT, Strain/Sex: SPRAGUE-DAWLEY/FEMALE, Route: ORAL, Dose: 0, 3, 10, 22, 46, 100 NG/KG/D (STUDY DURATION: 2 YRS), Dose: 0, 3, 10, 22, 46, 100 NG/KG/D (STUDY DURATION: 2 YRS), Tumor Site: Type of Lesion: ORAL MUCOSA: SQUAMOUS CELL CARCINOMA) was “active; positive; highest dose only” and the carcinogen call (Species: Rat, Strain/Sex: Harlan Sprague-Dawley/Female (50 dosed animals), Route: Gavage, Dose: 0, 100 ng/kg (Test material solvent: corn oil: acetone (99:1))) was “inactive; negative”. For the same compound, the carcinogen call (Species: Rat, Strain/Sex: Harlan Sprague-Dawley/Female, Route: Gavage, Dose: 0, 3, 10, 22, 46, 100 ng/kg (Test material solvent: corn oil: acetone (99:1)), Dose: 0, 3, 10, 22, 46, 100 ng/kg (Test material solvent: corn oil: acetone (99:1)), Tumor Site: Type of Lesion: Liver: Hepatocellular adenoma (0/53, 0/54, 0/53, 1/53, 13/53, 2/50), Cholangiocarcinoma (0/53, 0/54, 0/53, 1/53, 4/53, 2) was “active; positive; findings in pancreas and in liver for hepatocholangioma and cholangiom” and the carcinogen call (Species: Rat, Strain/Sex: Spartan Sprague Dawley/Female (50/Experimental Group; 86 Controls), Route: Oral, Dose: 0, 1, 10, 100 ng/kg in food, 7 days a wk for 2 yr, Dose: 0, 1, 10, 100 ng/kg in food, 7 days a wk for 2 yr) was “active; positive”.
`Cc1[nH]cnc1CSCCN=C(NC#N)N(C)N=O` was tested, and the carcinogen call (Species: MOUSE, Strain/Sex: B6C3F1/FEMALE, Route: ORAL, Dose: 0, 18.8, 190 MG/D IN DRINKING WATER FOR LIFE ADMINISTERED TO MICE OF MOTHERS EXPOSED TO SAME DOSES THROUGH PREGNANCY AND, Dose: 0, 18.8, 190 MG/D IN DRINKING WATER FOR LIFE ADMINISTERED TO MICE OF MOTHERS EXPOSED TO SAME DOSES THROUGH PREGNANCY AND) was “inactive; negative”, the carcinogen call (Species: MOUSE, Strain/Sex: B6C3F1/MALE, Route: ORAL, Dose: 0, 18.8, 190 MG/D IN DRINKING WATER FOR LIFE ADMINISTERED TO MICE OF MOTHERS EXPOSED TO SAME DOSES THROUGH PREGNANCY AND, Dose: 0, 18.8, 190 MG/D IN DRINKING WATER FOR LIFE ADMINISTERED TO MICE OF MOTHERS EXPOSED TO SAME DOSES THROUGH PREGNANCY AND) was “inactive; negative” and the carcinogen call (Species: MOUSE, Strain/Sex: C57BL/FEMALE, Route: ORAL, Dose: 0, 18.8, 190 MG/D IN DRINKING WATER BEGINNING AT 7-8 WK OF AGE AND CONTINUING FOR STUDY DURATION (STUDY DURATION: LIFE S, Dose: 0, 18.8, 190 MG/D IN DRINKING WATER BEGINNING AT 7-8 WK OF AGE AND CONTINUING FOR STUDY DURATION (STUDY DURATION: LIFE S) was “inactive; negative”. For the same compound, the carcinogen call (Species: RAT, Strain/Sex: F344/FEMALE, Route: ORAL, Dose: 0, 150 MG/L IN DRINKING WATER 5D/WK FOR 106 WK FOR A TOTAL DOSE OF 0, 1600 MG (STUDY DURATION: 131 WK), Dose: 0, 150 MG/L IN DRINKING WATER 5D/WK FOR 106 WK FOR A TOTAL DOSE OF 0, 1600 MG (STUDY DURATION: 131 WK)) was “inactive; negative”, the carcinogen call (Species: RAT, Strain/Sex: F344/MALE, Route: ORAL, Dose: 0, 150 MG/L IN DRINKING WATER 5D/WK FOR 106 WK FOR A TOTAL DOSE OF 0, 1600 MG (STUDY DURATION: 131 WK), Dose: 0, 150 MG/L IN DRINKING WATER 5D/WK FOR 106 WK FOR A TOTAL DOSE OF 0, 1600 MG (STUDY DURATION: 131 WK)) was “inactive; negative” and the carcinogen call (Species: RAT, Strain/Sex: SPRAGUE-DAWLEY/FEMALE, Route: GAVAGE, Dose: 0, 50, 500 MG/KG 2/WK FOR 1 YR (STUDY DURATION: LIFETIME), Dose: 0, 50, 500 MG/KG 2/WK FOR 1 YR (STUDY DURATION: LIFETIME)) was “inactive; negative”. The carcinogen call (Species: RAT, Strain/Sex: SPRAGUE-DAWLEY/MALE, Route: GAVAGE, Dose: 0, 50, 500 MG/KG 2/WK FOR 1 YR (STUDY DURATION: LIFETIME), Dose: 0, 50, 500 MG/KG 2/WK FOR 1 YR (STUDY DURATION: LIFETIME)) was “inactive; negative”.
`O=NN1CCCOC1` was tested, and the carcinogen call (Species: RAT, Strain/Sex: F344/FEMALE, Route: ORAL, Dose: 40 MG/L IN DRINKING WATER FOR 50 WK, Tumor Site: Type of Lesion: LIVER: HEPATOCELLULAR CARCINOMA, HEMANGIOENDOTHELIAL SARCOMA) was “active; positive”.
